“Also recorded” adds a separate entry of the source.
Key:
[1] = system: spontaneously hypertensive rats (SHR); assay: Chronic iv treatment, systolic blood pressure by telemetry; type: in vivo, rat
Excerpt: Implantation of the telemetry transmitters for BP measurement: Seven days before the start of the chronic experiment all rats were implanted with telemetry probes for blood pressure monitoring (Data Science International, St. Paul, MN, United States). The transmitters (TA11PA-C10 dedicated for young animals or TA11PA-C40 for adult rats, Data Science International, St. Paul, MN, United States), were implanted under aseptic conditions, under sodium pentobarbital anesthesia (Sodium Pentobarbital, dose: 50 mg/kg ip, Biowet, Pulawy, Poland). The transmitter’s cannula was implanted into the aorta and transmitter’s body was placed inside the peritoneal cavity and fixed to the abdominal muscle wall. Metacam (0.4 mg/kg BW, Boehringer, Ingelheim, Germany) and Baytril (10 mg/kg BW, Bayer, Leverkusen, Germany) were used as post-operative analgesia and to prevent infection, respectively.
Implantation of cannulas for intravenous administration of selected substances: Four days before the start of the chronic experiment, the femoral vein was cannulated for chronic administration of the substances (Micro-Renathane MRE033, BIOSEB-In Vivo Research Instruments, United States/Canada), and the femoral artery was cannulated for blood sampling (Micro-Renathane Tubing MRE-025 and MRE033, BIOSEB-In Vivo Research Instruments, United States/Canada, respectively in young and adult rats). Both cannulas were filled with 4% Citra-Lock solution (Dirinco B.V, Ketelmeer 1, 5347 JX Oss, Netherlands) to prevent blood clotting and inflammation. After the surgery the post-operative treatment was applied as that for telemetric probe implantation.
Systolic and diastolic blood pressure (SBP and DBP, respectively) and heart rate (HR) were measured in conscious unrestrained rats by telemetry technique, once a week for 24 h. […] The diuresis, weight of feces, food and water intake were measured; urine and blood samples were collected on day 0, 7th and 14th, and were centrifuged at 1200 g (blood for 15 min and urine for 5 min), then the samples were stored at –80°C until analysis. […]

[2] = system: spontaneously hypertensive rats (SHR); assay: Left ventricular hypertrophy (LV/tibia) after chronic treatment; type: in vivo, rat; conditions: after 14 days daily iv CH 2, RIY 7.5, VWIS 12.5 mg/kg/day, mean ± SEM, n = 5
Protocol: (§1) After the chronic experiment rats were anesthetized with sodium thiopental (100 mg/kg, ip, Sandoz GmbH, Kundl, Austria) and the heart, kidney and tibia were harvested for morphologic analysis. Additionally, left ventricular hypertrophy was assessed: the hearts were immediately harvested, dried with filter paper, and weighed. Then the left ventricle (LV) was carefully excised and weighed again. Left ventricular hypertrophy was assessed based on the ratio of LV mass to tibia length (LV/tibia).

[3] = system: spontaneously hypertensive rats (SHR); assay: Chronic iv treatment, urinary albumin excretion (UAE); type: in vivo, rat; conditions: mean ± SEM, n = 5
Protocol: Systolic and diastolic blood pressure (SBP and DBP, respectively) and heart rate (HR) were measured in conscious unrestrained rats by telemetry technique, once a week for 24 h. 24 hour observations in metabolic cages (Tecniplast S. p.A. Buguggiate, Italy) were performed weekly. The diuresis, weight of feces, food and water intake were measured; urine and blood samples were collected on day 0, 7th and 14th, and were centrifuged at 1200 g (blood for 15 min and urine for 5 min), then the samples were stored at –80°C until analysis.
On day 0 all animals received saline (0.9% NaCl) and then, for 14 consecutive days, the substance tested. Chymostatin (CH, 2 mg/kg/day) was dissolved in DMSO and then diluted with PBS (final concentration of DMSO was 0.15%). Peptides RIY (7.5 mg/kg/day) and VWIS (12.5 mg/kg/day) were dissolved in saline (0.9% NaCl, S). The substances were administered through the femoral vein during 10 min in the volume of 0.5 ml to young SHR (infusion rate: 3 ml/h) and 1 ml to adult rats (infusion rate: 6 ml/h). Control rats received solvents (either DMSO or saline) in the same volume.
Urine volume was determined by gravimetric method. Sodium and potassium concentration in urine and plasma were measured by flame photometry (PFP7/C, Jenway Ltd, Stone, United Kingdom). Urine and plasma osmolality were measured by freezing point depression (Osmomat® 030 M, Gonotec, Berlin, Germany). These parameters were used to determine the excretion rates of total solutes (UosmV), sodium (UNaV) and potassium (UKV). Commercially available ELISA kits were used to measure nitric oxide metabolites (NOx, SunRed, Shanghai) and albumin (Albumin, ICL, Portland) concentration in urine. Excretion rate of NOx (UNOxV) and albumin (UAE) were calculated.

[4] = system: anesthetized spontaneously hypertensive rats (SHR); assay: Acute infusion of chymostatin to anesthetized rats, mean arterial blood pressure; type: in vivo, rat; conditions: anesthetized adult SHR, chymostatin 2 mg/kg iv infusion 1 h, n = 7; decrease observed 30 min after cessation of infusion
Protocol: In acute experiments rats were anesthetized with intraperitoneal (ip) sodium thiopental (100 mg/kg; Sandoz GmbH, Kundl, Austria), which provided stable anesthesia for about 4 h. All surgical preparations were already described in detail ([Gawrys et al., 2014]; [Badzynska et al., 2020]). Throughout the experiment the temperature of the animal was kept constant (37°C). A cannula was placed in the trachea to ensure a free airway. The jugular vein was cannulated for infusion of fluids and drugs; during surgical preparations 3% bovine albumin in Ringer solution was infused at 10 ml/kg/h. For mean arterial blood pressure (MBP) measurement, a Teflon catheter was placed in the femoral artery (Stoelting Blood Pressure Meter, Wood Dale, IL, United States). After surgical preparations and stabilization of all parameters, a short control period (30 min) was made to obtain baseline for measured parameters. Chymostatin or its solvent (final concentration of DMSO was 0.05%) were administered for 1 h. After cessation of chymostatin infusion, a recovery period (30 min) was made. In the end, the animals were sacrificed by sodium thiopental overdose (iv); and vital life signs (blood pressure, breathing) were monitored until death.

ACE = conditions: ref Petrie et al., 2001; cited from earlier work
[5] = system: spontaneously hypertensive rats (SHR); assay: Glomerulosclerosis index (GSI) after chronic treatment; type: in vivo, rat; conditions: after 14 days daily iv CH 2, RIY 7.5, VWIS 12.5 mg/kg/day, mean ± SEM, n = 5
Protocol: as §1
The kidneys were fixed in 4% buffered formalin, embedded in paraffin and stained with hematoxylin/eosin for morphology evaluation. Glomerulosclerosis/hyalinosis index (GSI) was defined as segmental solidification of the glomerular capillary tuft, segmental collapse, obliteration of capillary lumen and accumulation of hyaline. Fifty glomeruli per section were randomly selected and evaluated using semi-quantitative scoring method as described in detail previously ([Maric et al., 2004]; [Gawrys et al., 2018]). Blind group allocation of the investigators was used.

With `CC(C)C[C@H](NC(=O)[C@@H](NC(=O)N[C@@H](Cc1ccccc1)C(=O)O)[C@@H]1CCN=C(N)N1)C(=O)N[C@H](C=O)Cc1ccccc1` [CH, chymostatin] the “effect on systolic blood pressure (SBP) in adult SHR” value ([1]; adult SHR (16 weeks old), daily iv for 14 days, CH 2, RIY 7.5, VWIS 12.5 mg/kg/day) was “no sustained decrease in arterial blood pressure; also recorded: significant increase in SBP”, the “period of transient BP reduction post-infusion” value ([1]; adult SHR, chronic intravenous infusion of chymostatin 2 mg/kg/day) was no more than 7 h and the “effect on blood pressure (SBP) in young animals” value ([1]; young SHR (6 weeks old), daily iv for 14 days, CH 2, RIY 7.5, VWIS 12.5 mg/kg/day) was “Neither of the inhibitors applied (chymostatin and the both rapeseed-derived peptides) affected blood pressure”. For the same compound, the “left ventricular hypertrophy (LV/tibia)” value ([2]; adult SHR) was 20.7 ± 2.6 mg/mm, the “left ventricular hypertrophy (LV/tibia)” value ([2]; young SHR) was 16.7 ± 0.9 mg/mm and the “Urinary albumin excretion (UAE)” value ([3]; adult SHR, day 0 (baseline, saline)) was 0.59 ± 0.33 mg/24h. For the same compound, the “Urinary albumin excretion (UAE)” value ([3]; adult SHR, day 7 of daily iv CH 2, RIY 7.5, VWIS 12.5 mg/kg/day) was 0.41 ± 0.04 mg/24h, the “Urinary albumin excretion (UAE)” value ([3]; adult SHR, day 14 of daily iv CH 2, RIY 7.5, VWIS 12.5 mg/kg/day) was 0.84 ± 0.32 mg/24h and the “Urinary albumin excretion (UAE)” value ([3]; young SHR, day 0 (baseline, saline)) was 0.03 ± 0.01 mg/24h. For the same compound, the “Urinary albumin excretion (UAE)” value ([3]; young SHR, day 7 of daily iv CH 2, RIY 7.5, VWIS 12.5 mg/kg/day) was 0.07 ± 0.01 mg/24h, the “Urinary albumin excretion (UAE)” value ([3]; young SHR, day 14 of daily iv CH 2, RIY 7.5, VWIS 12.5 mg/kg/day) was 0.13 ± 0.03 mg/24h and the “Mean blood pressure (MBP) after single intravenous infusion” value [4] was “decreased significantly”. For the same compound, the “block of ACE by chymostatin” value (ACE) was “does not block ACE”, the “glomerulosclerosis index (GSI)” value ([5]; adult SHR) was 0.50 ± 0.07 and the “glomerulosclerosis index (GSI)” value ([5]; young SHR) was 0.51 ± 0.07.

Source: article PMC8165439, “Chymase Dependent Pathway of Angiotensin II Generation and Rapeseed Derived Peptides for Antihypertensive Treatment of Spontaneously Hypertensive Rats” (Frontiers in Pharmacology, 2021)
